One assay relates to plasma proteins. The assay can be described thus: Binding of biotinylated NNKC9/41 to immobilized plasma proteins. To be noted: Fig 2B, as summarised. On the procedure:
(§1) Figure 2 NNKC9/41 interacts with the NTR of pro-FSAP: (A) To determine peptide binding to pro-FSAP, wells were coated with 2 μg/mL pro-FSAP and biotinylated NNKC9/41 and NNK11/189 and their respective scrambled controls were added in different concentration (0–5 μM). Peroxidase-labeled streptavidin was used to detect peptide binding. (B) Same procedure as in (A) except that different proteins were immobilized and biotinylated NNKC9/41 (0–30 μM) was added and its binding was measured. (C) Schematic structure of pro-FSAP with the heavy chain consisting of an NTR, three EGF domains, and a kringle domain, followed by the light chain harboring the serine protease domain (SPD). The binding domains of antibodies used in this study are indicated. (D) Recombinant complete heavy chain (heavy) and truncated heavy chain variants ΔNTR, ΔEGF1, ΔEGF2, ΔEGF3, and ΔKringle were expressed in bacteria and analyzed by sodium dodecyl sulfate poly(acrylamide) gel electrophoresis (SDS-PAGE) followed by Coomassie staining. […] Biotinylated NNKC9/41 or the scrambled control peptide was added at 1 μM and peptide binding was measured with peroxidase-linked streptavidin. […]
(§2) Wells were coated with anti-FSAP polyclonal antibodies (5 μg/mL). […] Subsequently, the plates were washed, and bound peptides were detected with peroxidase-coupled streptavidin. […]

The next assay relates to ΔEGF3 mutant. The assay is described as follows: Binding of biotinylated peptides to captured ΔEGF3 mutant. Details: species or system human. The conditions noted are these: peptide 1 μM; triplicate wells (Fig 2E). On the procedure: as §1, §2
The next assay concerns plasminogen. The assay can be described thus: Specificity towards pro-enzymes: plasminogen. It is filed as biochemical. The conditions noted are these: plasminogen 50 nM; peptide 0-50 μM; CS41; duplicates, 3 experiments (Fig S7). Here is the method: Fig S7. […]
(§3) Bend, IN, USA) except plasminogen and FSAP, which were isolated in house; and pro-uPA was from Grünenthal (Stolberg, Germany). All chromogenic substrates were from Hyphen Biomed (Neuville Sur Oise, France). Experiments were carried out in TBS with Tween-20 (0.1 % wt/ vol) BSA (0.3% wt/vol) and CaCl2 (2 mM). Absorbance at 405 nm was measured over time and the enzyme activity is depicted was measured in duplicates (mean + or -range) and similar results were obtained in 3

For the next assay, the system named is plasmin. The assay is described as follows: Specificity: plasmin. The format is biochemical. The conditions noted are these: plasmin 20 nM; peptide 0-50 μM; CS41 (Fig S7). Here is the method:
Fig S7. […]
as §3

The test system of the next assay is uPA. The assay can be described thus: Specificity: uPA. It is filed as biochemical. To be noted: uPA 20 nM; peptide 0-50 μM; PNAPEP 1344 (Fig S7). On the procedure:
Fig S7. […]
µM). Pro-uPA (100 nM) and uPA (20 nM) with PNAPEP 1344 (250 µM). Factor X (50 […]
as §3

The next assay relates to prothrombin. The assay is described as follows: Specificity towards pro-enzymes: prothrombin. It is filed as biochemical. To be noted: prothrombin 100 nM; peptide 0-50 μM; CS01 (Fig S7). Here is the method:
Fig S7. […]
(§4) Pro-thrombin (100 nM) and thrombin (20 nM) […]
as §3

The next assay concerns thrombin. The assay is described as follows: Specificity: thrombin. It is filed as biochemical. The conditions noted are these: thrombin 20 nM; peptide 0-50 μM; CS01 (Fig S7). Here is the method:
Fig S7. […]
as §4, §3

The next assay has as its system Factor Xa. The assay is described as follows: Specificity: factor Xa. It is filed as biochemical. To be noted: Factor Xa 20 nM; peptide 0-50 μM; S-2765 (Fig S7). Here is the method:
Fig S7. […]
as §3

Assay [1] concerns recombinant serine protease domain (SPD) of FSAP. The assay is described as follows: Activity of recombinant serine protease domain of FSAP. The conditions noted are these: rSPD 20 nM; peptide 0-50 μM; S2288 250 µM (Fig S7A). It is filed as biochemical, human. Here is the method:
Fig S7. […]
as §3, with “nM) and Factor Xa (20 nM) with S-2765 (250 µM). pro-FSAP (20 nM) and recombinant serine protease domain (rSPD) (20 nM) with S2288 (250 µM). All pro-enzymes and enzyme were obtained from Enzyme Research Laboratories (South Bend,” for “Bend,”

The next assay concerns the target T1, pro-FSAP in human plasma (Homo sapiens, UniProt Q14520).
T1 construct: from tissue; host or cells: human hirudin or citrate plasma from healthy donors, diluted 1:12
The assay is described as follows: Activation of endogenous pro-FSAP in plasma, fluorogenic substrate turnover. It is filed as biochemical.

T1 sequence (Q14520 24-560): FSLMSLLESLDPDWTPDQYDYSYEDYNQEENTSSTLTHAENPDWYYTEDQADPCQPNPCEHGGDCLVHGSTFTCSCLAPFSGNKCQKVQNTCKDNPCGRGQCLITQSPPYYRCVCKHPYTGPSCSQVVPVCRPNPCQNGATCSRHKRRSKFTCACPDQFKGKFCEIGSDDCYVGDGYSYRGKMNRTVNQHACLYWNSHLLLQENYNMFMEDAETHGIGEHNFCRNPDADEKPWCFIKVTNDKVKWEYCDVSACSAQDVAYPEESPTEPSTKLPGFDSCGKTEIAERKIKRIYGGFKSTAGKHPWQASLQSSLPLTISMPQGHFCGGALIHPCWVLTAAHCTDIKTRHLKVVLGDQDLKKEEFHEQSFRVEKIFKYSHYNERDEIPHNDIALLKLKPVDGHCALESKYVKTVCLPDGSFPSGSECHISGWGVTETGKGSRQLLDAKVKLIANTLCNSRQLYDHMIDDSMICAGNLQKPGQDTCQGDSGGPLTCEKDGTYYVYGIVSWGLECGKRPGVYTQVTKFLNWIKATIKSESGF

For CRGAMWMYKRC [NNKC9/41], the “binding to other plasma proteins” value with plasma proteins was “did not bind to any other plasma proteins tested, except FSAP”. Moreover, in the assay with ΔEGF3 mutant, the “peptide binding to ΔEGF3 mutant” value is on record as “higher binding”. Moreover, the effect on activity result in the assay with plasminogen, in the assay with plasmin, in the assay with uPA, in the assay with prothrombin, with thrombin and in the assay on Factor Xa was “did not influence the activity” throughout. Moreover, the “effect on activity of recombinant SPD” value in assay [1] is on record as “did not alter the activity”. Besides, on pro-FSAP in human plasma (citrate plasma 1:2, 10 μM, 3 donors (Fig S5)), the “effect in citrate plasma 1:2” value is listed as “completely abolished”. In addition, the “pro-FSAP activation in 1:2 diluted plasma vs higher dilution” value on pro-FSAP in human plasma (hirudin and citrate plasma 1:2 (Fig S5)) was “lower pro-FSAP activation”.

(Values after PMC9486805, “Identification of a Phage Display-Derived Peptide Interacting with the N-Terminal Region of Factor VII Activating Protease (FSAP) Enables Characterization of Zymogen Activation” (ACS Chemical Biology, 2022).)
